For orientation: AC50 means the concentration at which the activity in the assay is half-maximal. One may read the IC50 as the midpoint of a concentration-inhibition curve. High values mean lower potency, low ones higher potency.

Changes are numbered by the printed parent chain. Bounds are passed on as bounds.

The target of one assay is T1, POLγA:G848S (Homo sapiens, UniProt P54098, G848S).
T1 sequence (P54098 1-1239 G848S): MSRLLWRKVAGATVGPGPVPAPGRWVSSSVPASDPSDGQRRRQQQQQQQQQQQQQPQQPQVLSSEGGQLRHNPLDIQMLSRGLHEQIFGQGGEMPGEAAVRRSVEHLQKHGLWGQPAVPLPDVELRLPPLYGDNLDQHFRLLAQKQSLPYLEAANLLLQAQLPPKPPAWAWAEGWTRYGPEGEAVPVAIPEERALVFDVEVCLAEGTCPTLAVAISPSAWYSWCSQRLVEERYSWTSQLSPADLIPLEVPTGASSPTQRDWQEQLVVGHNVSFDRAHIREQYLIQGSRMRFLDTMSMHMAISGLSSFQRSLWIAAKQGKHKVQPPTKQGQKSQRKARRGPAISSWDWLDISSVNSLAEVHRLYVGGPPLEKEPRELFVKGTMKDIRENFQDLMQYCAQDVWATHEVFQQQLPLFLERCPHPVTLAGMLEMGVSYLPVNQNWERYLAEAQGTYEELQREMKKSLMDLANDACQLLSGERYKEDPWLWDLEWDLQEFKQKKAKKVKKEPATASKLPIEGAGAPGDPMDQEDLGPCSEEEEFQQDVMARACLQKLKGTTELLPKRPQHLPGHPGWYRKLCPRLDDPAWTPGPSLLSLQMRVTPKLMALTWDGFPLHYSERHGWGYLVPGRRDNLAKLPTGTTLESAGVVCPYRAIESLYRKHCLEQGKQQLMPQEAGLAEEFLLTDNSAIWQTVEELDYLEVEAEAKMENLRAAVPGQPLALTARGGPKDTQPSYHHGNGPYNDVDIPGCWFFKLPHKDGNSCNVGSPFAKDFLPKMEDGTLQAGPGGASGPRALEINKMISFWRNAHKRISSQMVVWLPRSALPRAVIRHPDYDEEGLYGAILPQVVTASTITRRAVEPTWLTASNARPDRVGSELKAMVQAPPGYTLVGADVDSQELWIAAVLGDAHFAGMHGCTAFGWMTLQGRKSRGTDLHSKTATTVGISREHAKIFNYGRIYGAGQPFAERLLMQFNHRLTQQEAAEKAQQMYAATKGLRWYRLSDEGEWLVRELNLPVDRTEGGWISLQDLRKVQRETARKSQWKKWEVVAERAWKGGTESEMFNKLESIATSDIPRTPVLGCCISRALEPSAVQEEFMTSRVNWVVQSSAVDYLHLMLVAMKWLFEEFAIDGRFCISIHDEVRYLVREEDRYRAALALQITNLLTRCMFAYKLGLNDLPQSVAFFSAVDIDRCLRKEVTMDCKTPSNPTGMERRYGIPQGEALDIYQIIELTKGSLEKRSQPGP
T1 sequence (Q9UHN1 1-485 partner): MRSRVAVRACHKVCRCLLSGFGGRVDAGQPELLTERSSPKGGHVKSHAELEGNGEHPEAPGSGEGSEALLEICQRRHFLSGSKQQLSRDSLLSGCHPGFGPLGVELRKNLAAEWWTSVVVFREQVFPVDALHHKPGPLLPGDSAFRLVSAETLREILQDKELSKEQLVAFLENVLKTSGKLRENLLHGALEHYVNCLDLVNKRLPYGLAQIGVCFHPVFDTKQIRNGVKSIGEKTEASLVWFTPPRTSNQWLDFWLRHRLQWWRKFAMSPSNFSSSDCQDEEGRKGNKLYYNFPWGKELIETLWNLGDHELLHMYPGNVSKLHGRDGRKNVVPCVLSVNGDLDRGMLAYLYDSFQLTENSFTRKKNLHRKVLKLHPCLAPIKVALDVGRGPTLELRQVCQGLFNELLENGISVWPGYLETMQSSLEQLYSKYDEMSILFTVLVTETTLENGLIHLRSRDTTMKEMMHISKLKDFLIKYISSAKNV
In words: DNA polymerization assay, POLγA:G848S mutant. The note with it: stimulation of polymerase activity, primed M13mp18 ssDNA, 37° C. 2 hours; read-out: G848S AC50. It is filed as biochemical. The method, then:
DNA Polymerization Assay to Monitor Effects on Human Wildtype POLγ and Four Disease-Causing Mutant Variants of Human POLγ.
The ability of small molecules to stimulate the polymerase activity of POLγ was analyzed in a quantitative fluorescence SYBR Green I assay with fluorescence intensity (FI) readout.
In the presence of dNTPs, wild type human POLγ and mutant derivatives thereof were incubated with single-stranded, circular M13mp18 ssDNA hybridized to a short DNA oligonucleotide that functions as a primer for initiation of DNA synthesis. POLγ and mutant derivatives thereof will extend the primer and use the M13mp18 molecule as a template to synthesize long stretches of double-stranded DNA. SYBR Green I, which is a double-stranded DNA-binding dye, was used to quantify formation of double-stranded DNA in the reaction. When bound to double-stranded DNA, SYBR Green I fluorescence increases by up to 100-fold.
The assay was performed in the 384-well plate format. Upon addition of compounds, changes in double-stranded DNA synthesis activity can be monitored by following effects on fluorescent intensity.
The reactions also contained the accessory POLγB subunit, and the human mitochondrial single-stranded DNA binding protein (mtSSB).
The DNA template mixture used in the assay contained 0.5 nM primed M13 mp18 ssDNA, 400 nM mtSSB, 0.1 mM Tris-HCl (pH 8.0), 0.1 mM dNTP, 10 mM MgCl2, 0.1 mg/mL BSA, 1 mM TCEP solution, and 0.02% Triton X-100. The DNA template mixture for the wild type protein contained either 100 μM dNTP, 1 μM dNTP, or 0.1 μM dNTP, designated in Table 2 as 100 μM, 1 μM, and 0.1 μM, respectfully.
(§1) Microplates with compounds (0.1 μL in each well) to be tested in the assay were prepared from 10 mM compound stocks in 100% DMSO, and equal amounts of DMSO without any compound were added to positive and negative control wells.
The protein mixture was dispensed (5 μL into each well) into compound plates and incubated at 37° C. for 15 minutes. After incubation, 5 μL of the DNA template mixture was dispensed into each well. The plates were then incubated at 37° C. for 2 hours.
(§2) During incubation, a combined stop buffer and detection reagent solution was prepared. The buffer contained 25 mM EDTA (pH 8.0), 0.02% Triton X-100, and SYBR Green I [Invitrogen] diluted 10,000× (for fluorescent readout). EDTA will stop the enzymatic reaction by chelating magnesium ions.

Assay [1] has as its target T2, human POLγ 3′-5′ exonuclease activity (Homo sapiens, UniProt P54098).
T2 sequence (P54098 1-1239): T1 sequence (P54098 1-1239 G848S) with S848G
T2 sequence (Q9UHN1 1-485 partner): T1 sequence (Q9UHN1 1-485 partner)
The assay is described as follows: Exonuclease inhibition assay with human POLγ (SYBR Green I fluorescence). Type of assay: biochemical. The note with it: POLγA 1 nM, POLγB 1.3 nM, 5 nM exonuclease template, no dNTPs, 37° C. 2.5 hours. The method, then: Exonuclease inhibition assay with human POLγ.
The ability of small molecules to inhibit the 3′-5′ exonuclease activity of POLγ was analyzed in a quantitative fluorescence SYBR Green I assay with fluorescence intensity (FI) readout.
Human POLγ was incubated with a linear, partially double-stranded template containing an 85 base pair double-stranded DNA stretch and a 15 nucleotides long single-stranded 5′-tail (hereafter referred to as the “exonuclease template”). […] When bound to double-stranded DNA, SYBR Green I fluorescence increases by up to 100-fold. In the absence of deoxynucleotide triphosphates (dNTPs), the exonuclease activity of POLγ degrades the 85-mer strand, which leads to the formation of single-stranded DNA (ssDNA) and decreased fluorescent intensity. The assay was performed in a 384-well plate format.
The exonuclease template used was generated by hybridization of a 100 nucleotides long, single-stranded DNA molecule with an inverted dT at the 3′-end (5′-TTTTTTTTTATCCGGGCTCGTTATCTAAGCTGCTCTTGGTAGGCATTGACGTCCATACTGCAAATTCAGCTCTGTGCAGTTAGGCAGGAGTCTACAAGC invT-3′) to an 85 nucleotides long single-stranded DNA molecule (5′-AGCTTGTAGACTCCTGCCTAACTGCACAGAGCTGAATTTGCAGTATGGACGTCAATGCCTACCAGAGCAGCTTAGATAACGAGC-3′), using a Bio-Rad T100 Thermal Cycler. The inverted dT is characterized by a 3′-3′ linkage, which inhibits both degradation of the 3′-5′ exonuclease activity and extension by DNA polymerases.
POLγ is an heterotrimer of one POLγA subunit (harboring exonuclease and DNA polymerase activities) and two accessory POLγB subunits. Proteins used in the exonuclease assay were POLγA (NP_002684) and POLγB (NP_009146).
The protein mixture used in the assays contained POLγA (1 nM), POLγB (1.3 nM, concentration calculated as a dimer), 25 mM Tris-HCl (pH 8.0), 0.1 mg/mL bovine serum albumin, 1 mM Bond-Breaker TCEP solution (pH 7) [Thermo Fisher], 25 mM NaCl, and 0.02% Triton X-100.
The DNA template mixture used in the assay contained 5 nM of the exonuclease template, 25 mM Tris-HCl (pH 8.0), 10 mM MgCl2, 0.1 mg/mL bovine serum albumin, 1 mM Bond-Breaker TCEP solution [Thermo Fisher], and 0.02% Triton X-100.
as §1
The protein mixture containing POLγ was dispensed (5 μL in each well) into compound plates and incubated at 37° C. for 15 minutes to allow compound binding to the POLγ complex. After incubation, 5 μL of the DNA template mixture was dispensed into each well. The plates were incubated at 37° C. for 2.5 hours.
as §2
After the 2.5-hour incubation period, the SYBR Green I solution was added (10 μL) to the screening plates and the plates were incubated at room temperature in the dark for 20 minutes before the fluorescent signal was read between […] on a BMG Pherastar microtiter plate reader.

Consider `Cc1cc(S(=O)(=O)Nc2cccc(C(=O)N[C@@H](C)c3ccccc3)c2)c(C)cc1Cl` [Example 45, (S)-3-((4-chloro-2,5-dimethylphenyl)sulfonamido)-N-(1-phenylethyl)benzamide], for which the half-maximal activity concentration (AC50) on POLγA:G848S is above 100 µM.

In turn, `Cc1cc(S(=O)(=O)Nc2cccc(-c3nc(C4CC4)cn3C)c2)c(C)cc1Cl` [Example 186, 4-chloro-N-(3-(4-cyclopropyl-1-methyl-1H-imidazol-2-yl)phenyl)-2,5-dimethylbenzenesulfonamide] showed an IC50 in assay [1] of 7 µM.
